Measurements as given in ChEMBL document CHEMBL6083254, “Optimization of B-Ring-Functionalized Antimalarial Tambjamines and Prodiginines” (J Med Chem, 2024).
“And” between values parts separate entries of the source, which are not always exact repeats. Equal values may be shown once. The source made the active and inactive calls. The calls are words filed in the database; no cut-off is given here.

What was measured:
HepG2 = test: (§1) Cytotoxicity against human HepG2 cells assessed as cell viability incubated for 72 hrs by MTT assay; type: toxicity, cell-based; conditions: hepg2
Plasmodium yoelii [1] = test: Antiplasmodial activity against asexual erythrocytic stage of Plasmodium yoelii infected in female CFI mouse model assessed as reduction in parasitemia at 25 mg/kg, po administered once daily for 4 days and measured on day 5 by Giemsa staining based microscopic analysis relative to control; type: functional; set-up: scale not given: the % may be the effect or the level left; conditions: time 5 day
Plasmodium yoelii [2] = test: Antiplasmodial activity against asexual erythrocytic stage of Plasmodium yoelii infected in female CFI mouse model assessed as reduction in parasitemia at 1 mg/kg, po administered once daily for 4 days and measured on day 5 by Giemsa staining based microscopic analysis relative to control; type: functional
Plasmodium yoelii [3] = test: Antiplasmodial activity against asexual erythrocytic stage of Plasmodium yoelii infected in female CFI mouse model assessed as reduction in parasitemia at 3 mg/kg, po administered once daily for 4 days and measured on day 5 by Giemsa staining based microscopic analysis relative to control; type: functional
Plasmodium yoelii [4] = test: Antiplasmodial activity against asexual erythrocytic stage of Plasmodium yoelii infected in female CFI mouse model assessed as reduction in parasitemia at 10 mg/kg, po administered once daily for 4 days and measured on day 5 by Giemsa staining based microscopic analysis relative to control; type: functional
Plasmodium yoelii [5] = test: Antiplasmodial activity against asexual erythrocytic stage of Plasmodium yoelii infected in female CFI mouse model at 25 mg/kg, po administered once daily for 4 days and measured on day 5 by Giemsa staining based microscopic analysis; type: functional, organism-based; conditions: time 5.0 day
in vitro = conditions: human
Description: Selectivity index, ratio of IC50 for cytotoxicity against human HepG2 cells assessed as cell viability to IC50 for antiplasmodial activity against asexual erythrocytic stage of Plasmodium falciparum D6 assessed as inhibition of parasitic growth incubated

Plasmodium falciparum [6] = test: microbe, parasite or virus in culture; conditions: D6, 72 h
Plasmodium falciparum [7] = test: microbe, parasite or virus in culture; conditions: Dd2, 72 h
Plasmodium falciparum [8] = test: microbe, parasite or virus in culture; conditions: Tm90-C2B, 72 h
[9] = as §1; type: toxicity, cell-based; conditions: human, HepG2 cells
[10] = Metabolic stability in human liver microsomes assessed as half life measured upto 60 mins LC-MS analysis
[11] = Metabolic stability in mouse liver microsomes assessed as half life measured upto 60 mins LC-MS analysis
[12] = Metabolic stability in human liver microsomes assessed as intrinsic clearance measured upto 60 mins LC-MS analysis
[13] = Metabolic stability in mouse liver microsomes assessed as intrinsic clearance measured upto 60 mins LC-MS analysis
Plasmodium yoelii [14] = test: Antiplasmodial activity against asexual erythrocytic stage of Plasmodium yoelii infected in po dosed female CFI mouse model assessed as reduction in parasitemia administered once daily for 4 days and measured on day 5 by Giemsa staining based microscopic analysis; type: functional; conditions: 120 h, time 5 day
Plasmodium yoelii [15] = test: Antiplasmodial activity against asexual erythrocytic stage of Plasmodium yoelii infected in female CFI mouse model at 10 mg/kg, po administered once daily for 4 days and measured on day 5 by Giemsa staining based microscopic analysis; type: functional, organism-based; conditions: time 5.0 day
[16] = Aqueous solubility of compound in PBS buffer at pH 7.4 incubated for 90 mins by UV-vis spectroscopic analysis; conditions: pH 7.4, 1.5 h
[17] = Plasmodium yoelii, po, read-out: ED50

SMILES	IC50 (HepG2)	Activity (Plasmodium yoelii [1])	Activity (Plasmodium yoelii [2]; time 5.0 day)	Activity (Plasmodium yoelii [3]; time 5.0 day)	Activity (Plasmodium yoelii [4]; time 5.0 day)	Activity (Plasmodium yoelii [5])	selectivity ratio (in vitro)	IC50 (Plasmodium falciparum [6])	IC50 (Plasmodium falciparum [7])	IC50 (Plasmodium falciparum [8])	half-life at 1 h [10]	half-life at 1 h [11]	microsomal CLint at 1 h [12]	microsomal CLint at 1 h [13]	Activity (Plasmodium yoelii [2]; time 5 day)	Activity (Plasmodium yoelii [4]; time 5 day)	solubility [16]	other results
CCCCCCCCCCCc1ccc(/C=C2\N=C(c3ccc[nH]3)C=C2OC(C)C)[nH]1.Cl	87300 nM	100%	inactive	inactive	inactive	inactive	3240	26.9 nM	18.2 nM	35.6 nM	–	–	–	–	–	–	–	–
CCCCCc1cc(/C=C2\N=C(c3ccc[nH]3)C=C2OCc2ccc(OC(F)(F)F)cc2)[nH]c1C.Cl	6520 nM	100%	inactive	inactive	inactive	inactive	900	7.24 nM	7.97 nM	12.5 nM	–	–	–	–	–	–	–	–
CCCCCC1=C/C(=C\c2[nH]c(-c3ccc[nH]3)cc2OC)N=C1C	–	–	–	–	–	–	–	8.01 nM	7.32 nM	8.8 nM	> 60 min	23 min	13.1 µL/min/mg	61.2 µL/min/mg	–	–	–	IC50 at 72 h [9]: 1070 nM
CCCCCc1cc(/C=C2\N=C(c3ccc[nH]3)C=C2OCC)[nH]c1C.Cl	3680 nM	100%	–	–	–	–	1500	2.45 nM	1.31 nM	7.29 nM	–	–	–	–	2.1%	100%	–	ED50 (Plasmodium yoelii [14]; [17]): 3.12 mg/kg/day; ED50 (Plasmodium yoelii [14]): 5.61 mg/kg/day; Activity (Plasmodium yoelii [3]; time 5 day): 46.6%; Activity (Plasmodium yoelii [15]): inactive
CCCCCc1cc(/C=C2\N=C(c3ccc[nH]3)C=C2Oc2ccc(OC(F)(F)F)cc2)[nH]c1C.Cl	16500 nM	100%	–	–	–	Active	1910	8.61 nM	7.4 nM	9.54 nM	59.4 min	38 min	23.3 µL/min/mg	36.4 µL/min/mg	49.1%	100%	< 3.125 µM	ED50 (Plasmodium yoelii [14]; [17]): 1.01 mg/kg/day; Activity (Plasmodium yoelii [3]; time 5 day): 92%; Activity (Plasmodium yoelii [15]): inactive
CCCCCCCCCCCc1ccc(/C=C2\N=C(c3ccc[nH]3)C=C2OCC)[nH]1.Cl	21000 nM	100%	inactive	inactive	inactive	inactive	4750	4.41 nM	3.45 nM	4.02 nM	> 60 min	41.9 min	19.1 µL/min/mg	33.1 µL/min/mg	–	–	< 3.125 µM	–
CCCCCc1cc(/C=C2\N=C(c3ccc[nH]3)C=C2OCc2ccc(Cl)cc2)[nH]c1C.Cl	10500 nM	97.1%	inactive	inactive	inactive	–	1480	7.13 nM	4.44 nM	8.73 nM	–	–	–	–	–	–	–	–
CCCCCCCCCCCc1ccc(/C=C2\N=C(c3ccc[nH]3)C=C2OCc2ccccc2)[nH]1.Cl	53600 nM	62.3%	inactive	inactive	inactive	–	2020	–	26.4 nM	22.4 nM	> 60 min	> 60 min	7.29 µL/min/mg	4.03 µL/min/mg	–	–	< 3.125 µM	–
CCCOC1=CC(c2ccc[nH]2)=N/C1=C\NC12CC3CC(CC(C3)C1)C2.Cl	2510 nM	81.8%	–	–	–	–	2140	1.17 nM	1.45 nM	1.61 nM	32 min	43.5 min	42.8 µL/min/mg	31.8 µL/min/mg	–	–	52.2 µM	–
C1=C(OCc2ccccc2)/C(=C/NC23CC4CC(CC(C4)C2)C3)N=C1c1ccc[nH]1.Cl	1100 nM	63%	–	–	–	–	171	6.45 nM	7.49 nM	5.25 nM	19.3 min	> 60 min	71.7 µL/min/mg	17.8 µL/min/mg	–	–	5.91 µM	–
CCCCCCCCCCCC1=N/C(=C\c2[nH]c(-c3ccc[nH]3)cc2OC)C=C1 [UNDECYLPRODIGININE]	–	100%	inactive	inactive	inactive	Active	237	7.22 nM	7.54 nM	8.21 nM	–	–	–	–	–	–	–	IC50 at 72 h [9]: 1710 nM
CCCCCCCCCCCc1ccc(/C=C2\N=C(c3ccc[nH]3)C=C2Oc2ccccc2)[nH]1.Cl	–	100%	inactive	inactive	inactive	inactive	> 2440	–	80.9 nM	64.3 nM	59.2 min	16.2 min	23.4 µL/min/mg	85.7 µL/min/mg	–	–	8.19 µM	IC50 at 72 h [9]: > 200000 nM
CCCCCc1cc(/C=C2\N=C(c3ccc[nH]3)C=C2OCc2ccccc2)[nH]c1C.Cl	7090 nM	100%	–	–	–	–	896	7.91 nM	4.25 nM	9.73 nM	> 60 min	> 60 min	3.89 µL/min/mg	7.33 µL/min/mg	16.8%	86.9%	< 3.125 µM	Activity (Plasmodium yoelii [3]; time 5 day): 43.3%
CCCCCc1cc(/C=C2\N=C(c3ccc[nH]3)C=C2Oc2ccc(Cl)cc2)[nH]c1C.Cl	9570 nM	–	–	–	–	Active	1210	7.89 nM	7.03 nM	10 nM	–	–	–	–	5.01%	100%	–	ED50 (Plasmodium yoelii [14]; [17]): 1.15 mg/kg/day; ED50 (Plasmodium yoelii [14]): 1.25 mg/kg/day
CCCCCc1cc(/C=C2\N=C(c3ccc[nH]3)C=C2OC(C)C)[nH]c1C.Cl	3480 nM	100%	–	–	–	Active	3190	1.09 nM	0.27 nM	1.56 nM	–	–	–	–	4.2%	100%	–	ED50 (Plasmodium yoelii [14]; [17]): 2.25 mg/kg/day; ED50 (Plasmodium yoelii [14]): 4.42 mg/kg/day; Activity (Plasmodium yoelii [3]; time 5 day): 71.8%; Activity (Plasmodium yoelii [15]): inactive
CCCCCc1cc(/C=C2\N=C(c3ccc[nH]3)C=C2OCCC)[nH]c1C.Cl	3560 nM	100%	–	–	–	–	11600	0.307 nM	0.501 nM	4.58 nM	43.6 min	34 min	31.8 µL/min/mg	40.8 µL/min/mg	23.9%	100%	18.5 µM	ED50 (Plasmodium yoelii [14]): 1.46 mg/kg/day and 3 mg/kg/day; Activity (Plasmodium yoelii [3]; time 5 day): 89.9%; Activity (Plasmodium yoelii [15]): inactive
CCN(CC)CCCC(C)Nc1ccnc2cc(Cl)ccc12 (stereo not drawn) [CHLOROQUINE]	–	100%	inactive	inactive	inactive	inactive	–	–	–	–	–	–	–	–	–	–	–	–
CCCCCCCCCCCc1ccc(/C=C2\N=C(c3ccc[nH]3)C=C2OCCC)[nH]1.Cl	18900 nM	100%	inactive	inactive	inactive	inactive	2810	6.71 nM	7.56 nM	8.01 nM	–	–	–	–	–	–	–	–
